Experimental data published in patent US11311524B2, “Pharmaceutical composition used for treatment of HTLV-1-associated myelopathy” (DAIICHI SANKYO COMPANY, LIMITED, priority 2017, dated 2022).

Columns and labels:
HAM patient-derived PBMC = assay: IL-10 and other cytokine release from HAM patient-derived PBMC (Cytokine Beads Array); type: cell-based, human; conditions: PBMC of 8 HAM patients, 12 days culture, 1-1000 nM, relative to DMSO
Procedure: PBMC taken from 8 HAM patients were suspended in a culture medium (RPMI1640 culture medium containing 10% FBS), seeded in a 48-well plate in a ratio of 5×10^5 cells per well and a compound A or compound B was added so as to provide a final concentration of 1, 10, 100 or 1000 nM. The culture solution of 0.5 mL in total was cultured at 37° C. in 5% CO2 conditions for 12 days. A group treated with DMSO and a group treated with PSL (1 μg/mL) were used as controls. Day 12 after initiation of the culture, the culture solution was centrifuged, and thereafter, the culture supernatant alone was recovered. The concentration of IL-10 in the culture supernatant was determined by use of the Cytokine Beads Array kit (BD Biosciences) and a flow cytometer FACSCantoII (BD Biosciences) (Yamauchi et al., J Infect Dis. 2015, 211 (2): 238-48). Based on the IL-10 concentration in the culture solution of the DMSO treatment group as 100%, changes in IL-10 concentration of culture solutions of groups treated with compound A and compound B different in concentration or a group treated with PSL (1 μg/mL) were compared. The significance test was carried out by using the Friedman test of GraphPad Prism6 (MDF).

HCT-4 cells = assay: Proliferation/viability of HTLV-1 infected cell line HCT-4 (CCK-8); type: cell-based, human; conditions: for Viability of HTLV-1 infected cells vs DMSO group: HCT-4, 1 μM, up to 21 days culture; for GI50: Homo sapiens, 336 h, 14 days culture, CCK-8
Procedure: HCT-4 and HCT-5, which were HTLV-1 infected cell lines established from the cerebrospinal fluid of HAM patients, were donated from a professor, Tatsufumi Nakamura of the Nagasaki International University. HCT-4 was cultured in RPMI1640 culture medium containing 10% FBS (GIBCO), a 1% penicillin-streptomycin solution (Wako) and 100 U/mL IL-2 (Cell Science & Technology Institute, Inc.); whereas HCT-5 was cultured by using 10% FBS, 1% penicillin-streptomycin solution, 1% L-glutamine (SIGMA) and 200 U/mL IL-2. HCT-4 (3×10^6 cells) or HCT-5 (2.5×10^6 cells) were seeded in a culture medium (20 mL) in a 75 cm^2-culture flask. DMSO was added and compound A or B was added so as to provide a final concentration of 1 μM and culture was carried out at 37° C. in 5% CO2 conditions for 21 days while repeating subculture. In the subculture, a culture solution containing HCT-4 treated with DMSO so as to correspond to 3×10^6 cells, whereas a culture solution containing HCT-5 treated with DMSO so as to correspond to 2.5×10^6 cells were taken and each added to a new culture medium to obtain a final volume of 20 mL, and then, further compound A or B was added so as to obtain the same concentration as above. Day 7, 14 and 21 after initiation of culture, cells were recovered from the culture solution and the density of the cells was measured. In this manner, the effect of compound A or B on cell proliferation was examined. The density of cells was determined by seeding cultured cells in a 96-well plate in a volume of 100 μL per well, adding 10 μL of Cell counting kit-8 (CCK-8) (Dojindo Laboratories laboratory) per well, incubating the cells at 37° C. for 3 hours and measuring absorbance at 450 nm by a plate reader (iMark Microplate Reader, Biorad). The proliferation rates of cell groups treated with compound A or compound B were each calculated based on the cell group treated with DMSO as a control. Next, in a 6-well plate, HCT-4 (4.5×10^5 cells) or HCT-5 (3.75×10^5 cells) were seeded. A solution of compound A or B prepared with DMSO was serially diluted (4-fold dilution from 10000 nM was serially repeated 8 times) and added thereto. The cells were repeatedly subcultured at intervals of 3 to 4 days in a culture solution of 3 mL in total at 37° C. in 5% CO2 condition for 14 days. […] The cells cultured for 14 days in individual conditions were recovered and the density of the cells were measured. […] The density of cells was determined by seeding the cultured cells (100 μL) per well in a 96-well plate, adding 10 μL of CCK-8 per well, incubating the cells at 37° C. for 3 hours and measuring absorbance at 450 nm by a plate reader. The proliferation rate of a group treated with compound A or compound B was calculated based on the group treated with DMSO as a control.

## Cc1cc(C)c(CNC(=O)c2cc(Br)c3c(c2C)O[C@@](C)([C@H]2CC[C@H](N(C)C)CC2)O3)c(=O)[nH]1 [compound A, (2R)-7-bromo-2-[trans-4-(dimethylamino)cyclohexyl]-N-[(4,6-dimethyl-2-oxo-1,2-dihydropyridin-3-yl)methyl]-2,4-dimethyl-1,3-benzodioxole-5-carboxamide]
HAM patient-derived PBMC
  Yield of IL-10 from PBMC: dramatically increased
HCT-4 cells
  Viability of HTLV-1 infected cells vs DMSO group: significantly reduce the viability
  GI50: 7.63 nM

## Cc1cc(C)c(CNC(=O)c2cc(Cl)c3c(c2C)O[C@@](C)([C@H]2CC[C@H](N(C)C)CC2)O3)c(=O)[nH]1 [compound B, (2R)-7-chloro-2-[trans-4-(dimethylamino)cyclohexyl]-N-[(4,6-dimethyl-2-oxo-1,2-dihydropyridin-3-yl)methyl]-2,4-dimethyl-1,3-benzodioxole-5-carboxamide]
HAM patient-derived PBMC
  Yield of IL-10 from PBMC: dramatically increased
HCT-4 cells
  Viability of HTLV-1 infected cells vs DMSO group: significantly reduce the viability
  GI50: 5.92 nM
